Source: patent publication US5475016A, “Sulphonylbenzyl-substituted imidazolypropenoic acid derivatives” (Bayer Aktiengesellschaft, priority 1992, dated 1995)

The molecules below were run on isolated aorta rings of rabbits, contraction induced by angiotensin II (AII) (assay: Inhibition of the vascular contraction in isolated aorta rings of rabbits in vitro, contraction induced by angiotensin II). Conditions: Oryctolagus cuniculus, effect at the 3rd = submaximal agonist concentration, read-out: IC50 against contractions induced by: AII.
Format: cell-based, rabbit
Protocol: Investigation of the Inhibition of the Contraction Induced with Agonists
Rabbits of both sexes are anaesthetised by a blow to the neck and bled out, or alternatively anaesthetised with Nembutal (about 60-80 mg/kg i.v.) and sacrificed by opening the thorax. The thorax aorta is taken out, freed from adhering connective tissue, divided into 1.5 mm-wide ring segments and these are individually transferred under an initial loading of about 3.5 g to 10-ml organ baths containing 95% O2 /5% CO2 -aerated Krebs-Henseleit nutrient solution, thermostated at 37° C., of the following composition: 119 mmol/l NaCl; 2.5 mmol/l CaCl2 ×2H2 O; 1.2 mmol/l KH2 PO4; 10 mmol/l glucose; 4.8 mmol/l KCl; 1.4 mmol/l MgSO4 ×7 H2 O and 25 mmol/l NaHCO3.
The contractions are detected isometrically by Statham UC2 cells by means of a bridge amplifier (ifd Mulheim or DSM Aalen) and digitised and evaluated by means of an A/D converter (System 570, Keithley, Munich). The implementation of agonist dose-response curves (DRC) is carried out hourly. With each DRC, 3 or 4 individual concentrations are applied to the baths at 4-min intervals. After the end of the DRC and subsequent washing-out cycles (16 times, in each case about 5 sec/min with the abovementioned nutrient solution), a 28-minute rest or incubation phase follows, in the course of which the contractions as a rule reach the starting value again.
The height of, in the normal case, the 3rd DRC is used as a reference quantity for the assessment of the test substance to be investigated in further runs, which test substance in the following DRCs is applied at the start of the incubation time to the baths, in each case in an increasing dose. Each aorta ring is in this case stimulated for the whole day, always with the same agonist.
Agonists and their Standard Concentrations (Administration Volume Per Individual Dose=100 μl):
For the calculation of the IC50 (concentration at which the substance to be investigated causes a 50% inhibition), the effect in each case at the 3rd=submaximal agonist concentration is used as a basis.

SMILES	IC50 [nM]
CCCCc1ncc(C=C(CCC)C(=O)O)n1Cc1ccc(S(=O)(=O)N2CCC[C@H]2C(=O)O)cc1Cl [Example 39]	4
CCCCc1ncc(C=C(CC(C)C)C(=O)O)n1Cc1ccc(S(=O)(=O)N2CCC[C@H]2C(=O)O)cc1Cl [Example 43]	3
CCCCc1ncc(C=C(Cc2cccs2)C(=O)OC)n1Cc1ccc(S(=O)(=O)N2CCC[C@H]2C(=O)O)cc1Cl [Example 53]	6
CCCCc1ncc(C=C(Cc2cccs2)C(=O)O)n1Cc1ccc(S(=O)(=O)N2CCC[C@H]2C(=O)O)cc1Cl [Example 55]	3
CCCCc1ncc(C=C(Cc2ccc(F)cc2)C(=O)OC)n1Cc1ccc(S(=O)(=O)N2CCC[C@H]2C(=O)O)cc1Cl [Example 57]	6

Continued, values first:

IC50 [nM]	SMILES
11	CCCCc1nc(Cl)c(C=C(CC2CCCC2)C(=O)OC)n1Cc1ccc(S(=O)(=O)N2CCCCC2C(=O)O)cc1Cl (racemic) [Example 2, rac-4-{[2-Butyl-4-chloro-5-(3-cyclopentyl-2-methoxycarbonylprop-1-enyl)imidazolyl]methyl}-3-chlorobenzenesulphonyl-N-(2-carboxy)piperidinide]
40	CCCCc1nc(Cl)c(C=C(CC2CCCC2)C(=O)O)n1Cc1ccc(S(=O)(=O)N2CCC[C@H]2C(=O)O)cc1 [Example 19]
1	CCCCc1nc(Cl)c(C=C(CC2CCCCC2)C(=O)O)n1Cc1ccc(S(=O)(=O)N2CCC[C@H]2C(=O)O)cc1Cl [Example 24]
4	CCCCc1ncc(C=C(CC2CCCC2)C(=O)O)n1Cc1ccc(S(=O)(=O)N2CCC[C@H]2C(=O)O)cc1Cl [Example 47]

These molecules were tested on Angiotensin II-infused rat (assay: Blood pressure measurements on the angiotensin II-infused rat). Conditions: 0.1 mg/kg p.o.; angiotensin II infusion 0.3 μg/kg/min; average values.
Format: in vivo, male Wistar rats
Protocol: Blood Pressure Measurements on the Angiotensin II-Infused Rat
Male Wistar rats (Moellegaard, Copenhagen, Denmark) having a body weight of 300-350 g are anaesthetised with thiopental (100 mg/kg i.p.). After tracheotomy, a catheter is inserted in the femoral artery for blood pressure measurement and a catheter for angiotensin II infusion and a catheter for substance administration are inserted in the femoral veins. After administration of the ganglionic blocker pentolinium (5 mg/kg i.v.), the angiotensin II infusion (0.3 μg/kg/min) is started. As soon as the blood pressure values have reached a stable plateau, the test substances are administered either intravenously or orally as a suspension or solution in 0.5% Tylose.

SMILES	Blood pressure measurement (blood pressure change) [mm Hg]
CCCCc1nc(Cl)c(C=C(CC2CCCCC2)C(=O)O)n1Cc1ccc(S(=O)(=O)N2CCC[C@H]2C(=O)O)cc1 [Example 23]	-17
CCCCc1ncc(C=C(CC(C)C)C(=O)OCC)n1Cc1ccc(S(=O)(=O)N2CCC[C@H]2C(=O)O)cc1Cl [Example 41]	-11
CCCCc1ncc(C=C(CC(C)C)C(=O)O)n1Cc1ccc(S(=O)(=O)N2CCC[C@H]2C(=O)O)cc1Cl [Example 43]	-10

What follows are molecules tested against T1, Angiotensin II receptor (Bos taurus, UniProt P25104) (assay: Interaction with the angiotensin II receptor on membrane fractions of the adrenal gland cortex (cattle), 3H-angiotensin II binding). Conditions: bovine adrenal gland cortex membranes, 3H-angiotensin II 3-5 nM, 60 min at room temperature.
T1 construct: from tissue; host or cells: bovine adrenal gland cortex, partially purified membrane fractions
T1 sequence (P25104 1-359): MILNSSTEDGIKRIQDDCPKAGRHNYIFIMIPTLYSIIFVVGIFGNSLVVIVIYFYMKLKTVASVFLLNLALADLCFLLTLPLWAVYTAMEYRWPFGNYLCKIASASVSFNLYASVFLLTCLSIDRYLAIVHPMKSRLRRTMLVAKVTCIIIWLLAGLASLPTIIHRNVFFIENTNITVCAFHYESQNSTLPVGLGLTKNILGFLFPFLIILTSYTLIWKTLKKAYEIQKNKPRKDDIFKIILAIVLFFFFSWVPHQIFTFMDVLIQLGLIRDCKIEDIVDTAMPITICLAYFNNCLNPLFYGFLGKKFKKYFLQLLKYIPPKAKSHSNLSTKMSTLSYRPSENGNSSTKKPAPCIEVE
From the text: Interaction of the Compounds According to the Invention with the Angiotensin II Receptor on Membrane Fractions of the Adrenal Gland Cortex (Cattle)
Adrenal gland cortices of cattle (AGC), which have been freshly removed and carefully freed from gland medulla, are comminuted in sucrose solution (0.32M) with the aid of an Ultra-Turrax (Janke & Kunkel, Staufen i.B.) to give a coarse membrane homogenate and are partially purified in two centrifugation steps to give membrane fractions. The receptor binding investigations are carried out on partially purified membrane fractions of bovine AGC using radioactive angiotensin II in an assay volume of 0.25 ml, which in detail contains the partially purified membranes (50-80 μg), ^3 H-angiotensin II (3-5 nM), test buffer solution (50 mM tris, pH 7.2, 5 mM MgCl2, 0.25% BSA) and the substances to be investigated. After an incubation time of 60 min at room temperature, the unbound radioactivity of the samples is separated by means of moistened glass fibre filters (Whatman GF/C) and the bound radioactivity is measured […] in a scintillation cocktail after washing the protein with ice-cold buffer solution (50 mM tris/HCl, pH 7.4, 5% PEG 6000). The analysis of the raw data was carried out using computer programs to give Ki or IC50 values (Ki : IC50 values corrected for the radioactivity used; IC50 values: concentration at which the substance to be investigated causes a 50% inhibition of the specific binding of the radioligand).

Ki [nM]	SMILES
100	CCCCc1nc(Cl)c(C=C(CC2CCCC2)C(=O)O)n1Cc1ccc(S(=O)(=O)N2CCCCC2)cc1 [Example 9]
40	CCCCc1nc(Cl)c(C=C(CC2CCCCC2)C(=O)O)n1Cc1ccc(S(=O)(=O)N2CCCCC2)cc1 [Example 10]
40	CCCCc1nc(Cl)c(C=C(CC2CCCC2)C(=O)O)n1Cc1ccc(S(=O)(=O)N2CCCCC2C(=O)O)cc1Cl (stereo not drawn) [Example 20]
120	CCCCc1nc(Cl)c(C=C(Cc2cccs2)C(=O)OC)n1Cc1ccc(S(=O)(=O)N2CCCCC2C(=O)OC(C)(C)C)cc1 (stereo not drawn) [Example 30]

Each molecule was assayed on smooth muscle cells (assay: Inhibition of the proliferation of smooth muscle cells (3H-thymidine incorporation)). Conditions: 10^-6 M.
Format: cell-based, rats or pigs
Protocol: Investigation of Inhibition of the Proliferation of Smooth Muscle Cells by the Compounds According to the Invention
To determine the antiproliferative action of the compounds, smooth muscle cells are used which have been obtained from the aortas of rats or pigs by the media explant technique [R. Ross, J. Cell. Biol. 50, 172, 1971]. The cells are inoculated into suitable culture dishes, as a rule 24-hole plates, and cultured at 37° C. in 5% CO2 for 2-3 days in Medium 199 containing 7.5% FCS and 7.5% NCS, 2 mM L-glutamine and 15 mM HEPES, pH 7.4. After this, the cells are synchronised by withdrawal of serum for 2-3 days and then stimulated into growth with AII, serum or other factors. At the same time, test compounds are added. After 16-20 hours, 1 μCi of ^3 H-thymidine is added and the incorporation of this substance into the TCA-precipitable DNA of the cells is determined after a further 4 hours.

SMILES	inhibition at 1 µM [%]
CCCCc1nc(Cl)c(C=CC(=O)O)n1Cc1ccc(S(=O)(=O)N2CCCC2)cc1 [Example 6]	70
CCCCc1nc(Cl)c(C=C(Cc2cccs2)C(=O)OC)n1Cc1ccc(S(=O)(=O)N2CCCCC2)cc1 [Example 27]	30
